Reference: US9518064B2, “Imidazothiadiazole and imidazopyridazine derivatives as protease activated receptor 4 (PAR4) inhibitors for treating platelet aggregation” (BRISTOL-MYERS SQUIBB COMPANY, priority 2012, dated 2016)

Assays:
Assay type in all cases: cell-based
[1] = test system: human PRP; experiment: Tissue factor-induced platelet aggregation assay; conditions: FIGS. 1 and 2
Source text: Example E is a tissue factor-induced platelet aggregation assay. The conditions in this assay mimic the physiological events during thrombus formation. In this assay, platelet aggregation in human PRP was initiated by the addition of tissue factor and CaCl2. Tissue factor, the initiator of the extrinsic coagulation cascade, is highly elevated in human atherosclerotic plaque. Exposure of blood to tissue factor at the atherosclerotic site triggers a robust generation of thrombin and induces the formation of obstructive thrombi.
The ability of PAR1 or PAR4 antagonists to inhibit platelet aggregation induced by endogenous thrombin can be tested in a tissue factor driven aggregation assay. Aggregation is initiated by addition of CaCl2 and recombinant human tissue factor, which results in the generation of thrombin through activation of the coagulation pathway in the plasma. Anticoagulant agents such as corn trypsin inhibitor (Haematologic Technologies, Essex Junction, Vt.) at 50 μg/ml and PEFABLOC® FG (Centerchem, Norwalk, Conn.) are also added to the sample to prevent fibrin clot formation during the time of the study. Platelet aggregation is monitored using standard instrumentation including optical aggregometer or impedance aggregometer.

[2] = target: T1, PAR4 (Homo sapiens (Human), UniProt Q96RI0); experiment: FLIPR assay in PAR4-expressing HEK293 cells (calcium mobilization); conditions: PAR4 antagonist activity, FLIPR assay as described in Example A
[3] = target: T1, PAR4; experiment: Gamma thrombin induced platelet aggregation assay (PRP assay); conditions: γ-thrombin induced platelet aggregation in PRP
[4] = test system: human washed platelets; experiment: Alpha-thrombin induced platelet aggregation assay in human washed platelets; conditions: 0.1 h, read-out: IC50 for the inhibition of platelet aggregation
Protocol: Example D is an alpha-thrombin-induced platelet aggregation assay. Alpha-thrombin activates both PAR1 and PAR4. The ability of a selective PAR4 antagonist of the present invention, Example 13, to inhibit platelet aggregation was measured using a standard optical aggregometer.
Human blood was collected in ACD (85 mM tri-sodium citrate, 78 mM citric acid, 110 mM D-glucose, pH 4.4) at a ratio of 1.4 ml per 10 ml blood. PRP was isolated by centrifugation at 170 g for 14 minutes and platelets were further pelleted by centrifugation at 1300 g for 6 minutes. Platelets were washed once with 10 ml ACD containing 1 mg/ml bovine serum albumin. Platelets were resuspended at ˜2.5×10^8/ml in Tyrode's Buffer (137 mM NaCl, 2 mM KCl, 1.0 mM MgCl2, 1 mM CaCl2, 5 mM glucose, 20 mM HEPES pH 7.4).
The ability of a PAR4 antagonist (Example 13) compound to inhibit platelet aggregation induced by alpha-thrombin was tested using human washed platelets. Example 13 was pre-incubated with washed platelets for 20 min. Aggregation was initiated by addition of 1.5 nM alpha-thrombin (Haematologic Technologies, Essex Junction, Vt.) to 300 μl of washed platelets at stirring speed of 1000 rpm. […] IC50 was calculated using vehicle control as 0% inhibition.

T1 sequence (Q96RI0 18-385): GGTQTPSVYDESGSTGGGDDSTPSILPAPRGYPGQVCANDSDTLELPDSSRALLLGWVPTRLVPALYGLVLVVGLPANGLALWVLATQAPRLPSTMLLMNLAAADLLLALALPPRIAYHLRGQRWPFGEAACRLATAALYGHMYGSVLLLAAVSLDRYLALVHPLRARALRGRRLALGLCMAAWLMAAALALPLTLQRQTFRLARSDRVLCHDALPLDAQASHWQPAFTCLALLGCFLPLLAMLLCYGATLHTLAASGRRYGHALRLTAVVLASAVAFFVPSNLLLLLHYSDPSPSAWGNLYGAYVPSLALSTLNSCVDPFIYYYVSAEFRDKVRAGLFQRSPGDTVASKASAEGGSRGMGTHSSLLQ

SMILES: COc1cc(OCc2cccc(-c3ccc(C#N)nc3)c2)c2cc(-c3cn4nc(OC)sc4n3)oc2c1 [Example 13]
- inhibition of tissue factor-induced platelet aggregation [1]: effective inhibition
- IC50 [2]: 1.74 nM
- IC50 [3]: 4.91 nM
- IC50 [4]: 11 nM
